Measurements taken from the OligoGym collection.
Where “and” joins values, the source holds several entries; their conditions need not be identical. Identical values can stand only once. HELM strings list units from the 5' end as sugar, base in round brackets, then linkage (d deoxyribose, r ribose, m 2'-O-methyl, p phosphodiester). Strings are as the collection lists them, not checked against the first reports. ss, as = sense and antisense strand; [lna] = locked nucleic acid (LNA)

Details: siRNA
Note: test system not given here.

Work on “RNA1{r(C)p.r(U)p.r(U)p.r(A)p.r(C)p.r(G)p.r(C)p.r(U)p.r(G)p.r(A)p.r(G)p.r(U)p.r(A)p.r(C)p.r(U)p.r(U)p.r(C)p.r(G)p.r(A)p.r(T)p.r(T)}|RNA2{r(T)p.r(C)p.r(G)p.r(A)p.r(A)p.r(G)p.r(U)p.r(A)p.r(C)p.[lna](T)p.r(C)p.r(A)p.r(G)p.r(C)p.r(G)p.r(U)p.r(A)p.r(A)p.r(G)p.[lna](T)p.[lna](T)}$$$RNA1{StrandType:ss}|RNA2{StrandType:as}$” yielded a target mRNA knockdown of 60%.

In the case of “RNA1{r(C)p.r(U)p.r(U)p.r(A)p.r(C)p.r(G)p.r(C)p.r(U)p.r(G)p.r(A)p.r(G)p.r(U)p.r(A)p.r(C)p.r(U)p.r(U)p.r(C)p.r(G)p.r(A)p.r(T)p.r(T)}|RNA2{r(T)p.r(C)p.r(G)p.r(A)p.r(A)p.r(G)p.r(U)p.r(A)p.r(C)p.r(U)p.r(C)p.[lna](A)p.r(G)p.r(C)p.r(G)p.r(U)p.r(A)p.r(A)p.r(G)p.[lna](T)p.[lna](T)}$$$RNA1{StrandType:ss}|RNA2{StrandType:as}$”, the target mRNA knockdown is reported as 70% and 94%.

“RNA1{r(C)p.r(U)p.r(U)p.r(A)p.r(C)p.r(G)p.r(C)p.r(U)p.r(G)p.r(A)p.r(G)p.r(U)p.r(A)p.r(C)p.r(U)p.r(U)p.r(C)p.r(G)p.r(A)p.r(T)p.r(T)}|RNA2{r(T)p.r(C)p.r(G)p.r(A)p.r(A)p.r(G)p.r(U)p.r(A)p.r(C)p.r(U)p.r(C)p.r(A)p.r(G)p.r(C)p.[lna](G)p.r(U)p.r(A)p.r(A)p.r(G)p.[lna](T)p.[lna](T)}$$$RNA1{StrandType:ss}|RNA2{StrandType:as}$” showed a target mRNA knockdown of 87%.

“RNA1{r(C)p.r(U)p.r(U)p.r(A)p.r(C)p.r(G)p.r(C)p.r(U)p.r(G)p.r(A)p.r(G)p.r(U)p.r(A)p.r(C)p.r(U)p.r(U)p.r(C)p.r(G)p.r(A)p.r(T)p.r(T)}|RNA2{r(T)p.r(C)p.r(G)p.r(A)p.r(A)p.r(G)p.r(U)p.r(A)p.r(C)p.r(U)p.r(C)p.r(A)p.r(G)p.r(C)p.r(G)p.[lna](T)p.r(A)p.r(A)p.r(G)p.[lna](T)p.[lna](T)}$$$RNA1{StrandType:ss}|RNA2{StrandType:as}$” showed a target mRNA knockdown of 83%.

“RNA1{r(C)p.r(U)p.r(U)p.r(A)p.r(C)p.r(G)p.r(C)p.r(U)p.r(G)p.r(A)p.r(G)p.r(U)p.r(A)p.r(C)p.r(U)p.r(U)p.r(C)p.r(G)p.r(A)p.r(T)p.r(T)}|RNA2{r(T)p.r(C)p.r(G)p.r(A)p.r(A)p.r(G)p.r(U)p.r(A)p.r(C)p.r(U)p.r(C)p.r(A)p.r(G)p.r(C)p.r(G)p.r(U)p.[lna](A)p.r(A)p.r(G)p.[lna](T)p.[lna](T)}$$$RNA1{StrandType:ss}|RNA2{StrandType:as}$” showed a target mRNA knockdown of 96%.

“RNA1{r(C)p.r(U)p.r(U)p.r(A)p.r(C)p.r(G)p.r(C)p.r(U)p.r(G)p.r(A)p.r(G)p.r(U)p.r(A)p.r(C)p.r(U)p.r(U)p.r(C)p.r(G)p.r(A)p.r(T)p.r(T)}|RNA2{r(T)p.r(C)p.r(G)p.r(A)p.r(A)p.r(G)p.r(U)p.r(A)p.r(C)p.r(U)p.r(C)p.r(A)p.r(G)p.r(C)p.r(G)p.r(U)p.r(A)p.[lna](A)p.r(G)p.[lna](T)p.[lna](T)}$$$RNA1{StrandType:ss}|RNA2{StrandType:as}$” gave a target mRNA knockdown of 95%.

“RNA1{r(C)p.r(U)p.r(U)p.r(A)p.r(C)p.r(G)p.r(C)p.r(U)p.r(G)p.r(A)p.r(G)p.r(U)p.r(A)p.r(C)p.r(U)p.r(U)p.r(C)p.r(G)p.r(A)p.r(T)p.r(T)}|RNA2{r(T)p.r(C)p.r(G)p.r(A)p.r(A)p.r(G)p.r(U)p.r(A)p.r(C)p.r(U)p.r(C)p.r(A)p.r(G)p.r(C)p.r(G)p.r(U)p.r(A)p.r(A)p.[lna](G)p.[lna](T)p.[lna](T)}$$$RNA1{StrandType:ss}|RNA2{StrandType:as}$” gave a target mRNA knockdown of 92%.

“RNA1{r(C)p.r(U)p.r(U)p.r(A)p.r(C)p.r(G)p.r(C)p.r(U)p.r(G)p.r(A)p.r(G)p.r(U)p.r(A)p.r(C)p.r(U)p.r(U)p.r(C)p.r(G)p.r(A)p.r(T)p.r(T)}|RNA2{r(U)p.[lna](C)p.r(G)p.r(A)p.r(A)p.r(G)p.r(U)p.r(A)p.r(C)p.r(U)p.r(C)p.r(A)p.r(G)p.r(C)p.r(G)p.r(U)p.r(A)p.r(A)p.r(G)p.r(T)p.r(T)}$$$RNA1{StrandType:ss}|RNA2{StrandType:as}$” gave a target mRNA knockdown of 0%.

With “RNA1{r(C)p.r(U)p.r(U)p.r(A)p.r(C)p.r(G)p.r(C)p.r(U)p.r(G)p.r(A)p.r(G)p.r(U)p.r(A)p.r(C)p.r(U)p.r(U)p.r(C)p.r(G)p.r(A)p.r(T)p.r(T)}|RNA2{r(U)p.r(C)p.[lna](G)p.r(A)p.r(A)p.r(G)p.r(U)p.r(A)p.r(C)p.r(U)p.r(C)p.r(A)p.r(G)p.r(C)p.r(G)p.r(U)p.r(A)p.r(A)p.r(G)p.r(T)p.r(T)}$$$RNA1{StrandType:ss}|RNA2{StrandType:as}$” the target mRNA knockdown was 82%.

Work on “RNA1{r(C)p.r(U)p.r(U)p.r(A)p.r(C)p.r(G)p.r(C)p.r(U)p.r(G)p.r(A)p.r(G)p.r(U)p.r(A)p.r(C)p.r(U)p.r(U)p.r(C)p.r(G)p.r(A)p.r(T)p.r(T)}|RNA2{r(U)p.r(C)p.r(G)p.[lna](A)p.r(A)p.r(G)p.r(U)p.r(A)p.r(C)p.r(U)p.r(C)p.r(A)p.r(G)p.r(C)p.r(G)p.r(U)p.r(A)p.r(A)p.r(G)p.r(T)p.r(T)}$$$RNA1{StrandType:ss}|RNA2{StrandType:as}$” yielded a target mRNA knockdown of 85%.

Work on “RNA1{r(C)p.r(U)p.r(U)p.r(A)p.r(C)p.r(G)p.r(C)p.r(U)p.r(G)p.r(A)p.r(G)p.r(U)p.r(A)p.r(C)p.r(U)p.r(U)p.r(C)p.r(G)p.r(A)p.r(T)p.r(T)}|RNA2{r(U)p.r(C)p.r(G)p.r(A)p.[lna](A)p.r(G)p.r(U)p.r(A)p.r(C)p.r(U)p.r(C)p.r(A)p.r(G)p.r(C)p.r(G)p.r(U)p.r(A)p.r(A)p.r(G)p.r(T)p.r(T)}$$$RNA1{StrandType:ss}|RNA2{StrandType:as}$” yielded a target mRNA knockdown of 83%.

“RNA1{r(C)p.r(U)p.r(U)p.r(A)p.r(C)p.r(G)p.r(C)p.r(U)p.r(G)p.r(A)p.r(G)p.r(U)p.r(A)p.r(C)p.r(U)p.r(U)p.r(C)p.r(G)p.r(A)p.r(T)p.r(T)}|RNA2{r(U)p.r(C)p.r(G)p.r(A)p.r(A)p.[lna](G)p.r(U)p.r(A)p.r(C)p.r(U)p.r(C)p.r(A)p.r(G)p.r(C)p.r(G)p.r(U)p.r(A)p.r(A)p.r(G)p.r(T)p.r(T)}$$$RNA1{StrandType:ss}|RNA2{StrandType:as}$” showed a target mRNA knockdown of 82%.

“RNA1{r(C)p.r(U)p.r(U)p.r(A)p.r(C)p.r(G)p.r(C)p.r(U)p.r(G)p.r(A)p.r(G)p.r(U)p.r(A)p.r(C)p.r(U)p.r(U)p.r(C)p.r(G)p.r(A)p.r(T)p.r(T)}|RNA2{r(U)p.r(C)p.r(G)p.r(A)p.r(A)p.r(G)p.[lna](U)p.r(A)p.r(C)p.r(U)p.r(C)p.r(A)p.r(G)p.r(C)p.r(G)p.r(U)p.r(A)p.r(A)p.r(G)p.r(T)p.r(T)}$$$RNA1{StrandType:ss}|RNA2{StrandType:as}$” gave a target mRNA knockdown of 81%.

With “RNA1{r(C)p.r(U)p.r(U)p.r(A)p.r(C)p.r(G)p.r(C)p.r(U)p.r(G)p.r(A)p.r(G)p.r(U)p.r(A)p.r(C)p.r(U)p.r(U)p.r(C)p.r(G)p.r(A)p.r(T)p.r(T)}|RNA2{r(U)p.r(C)p.r(G)p.r(A)p.r(A)p.r(G)p.r(U)p.[lna](A)p.r(C)p.r(U)p.r(C)p.r(A)p.r(G)p.r(C)p.r(G)p.r(U)p.r(A)p.r(A)p.r(G)p.r(T)p.r(T)}$$$RNA1{StrandType:ss}|RNA2{StrandType:as}$” the target mRNA knockdown was 86%.

“RNA1{r(C)p.r(U)p.r(U)p.r(A)p.r(C)p.r(G)p.r(C)p.r(U)p.r(G)p.r(A)p.r(G)p.r(U)p.r(A)p.r(C)p.r(U)p.r(U)p.r(C)p.r(G)p.r(A)p.r(T)p.r(T)}|RNA2{r(U)p.r(C)p.r(G)p.r(A)p.r(A)p.r(G)p.r(U)p.r(A)p.[lna](C)p.r(U)p.r(C)p.r(A)p.r(G)p.r(C)p.r(G)p.r(U)p.r(A)p.r(A)p.r(G)p.r(T)p.r(T)}$$$RNA1{StrandType:ss}|RNA2{StrandType:as}$” gave a target mRNA knockdown of 85%.

Work on “RNA1{r(C)p.r(U)p.r(U)p.r(A)p.r(C)p.r(G)p.r(C)p.r(U)p.r(G)p.r(A)p.r(G)p.r(U)p.r(A)p.r(C)p.r(U)p.r(U)p.r(C)p.r(G)p.r(A)p.r(T)p.r(T)}|RNA2{r(U)p.r(C)p.r(G)p.r(A)p.r(A)p.r(G)p.r(U)p.r(A)p.r(C)p.r(U)p.[lna](C)p.r(A)p.r(G)p.r(C)p.r(G)p.r(U)p.r(A)p.r(A)p.r(G)p.r(T)p.r(T)}$$$RNA1{StrandType:ss}|RNA2{StrandType:as}$” yielded a target mRNA knockdown of 50%.

For “RNA1{r(C)p.r(U)p.r(U)p.r(A)p.r(C)p.r(G)p.r(C)p.r(U)p.r(G)p.r(A)p.r(G)p.r(U)p.r(A)p.r(C)p.r(U)p.r(U)p.r(C)p.r(G)p.r(A)p.r(T)p.r(T)}|RNA2{r(U)p.r(C)p.r(G)p.r(A)p.r(A)p.r(G)p.r(U)p.r(A)p.r(C)p.r(U)p.r(C)p.[lna](A)p.r(G)p.r(C)p.r(G)p.r(U)p.r(A)p.r(A)p.r(G)p.r(T)p.r(T)}$$$RNA1{StrandType:ss}|RNA2{StrandType:as}$”, the target mRNA knockdown was 89%.

“RNA1{r(C)p.r(U)p.r(U)p.r(A)p.r(C)p.r(G)p.r(C)p.r(U)p.r(G)p.r(A)p.r(G)p.r(U)p.r(A)p.r(C)p.r(U)p.r(U)p.r(C)p.r(G)p.r(A)p.r(T)p.r(T)}|RNA2{r(U)p.r(C)p.r(G)p.r(A)p.r(A)p.r(G)p.r(U)p.r(A)p.r(C)p.r(U)p.r(C)p.r(A)p.[lna](G)p.r(C)p.r(G)p.r(U)p.r(A)p.r(A)p.r(G)p.r(T)p.r(T)}$$$RNA1{StrandType:ss}|RNA2{StrandType:as}$” showed a target mRNA knockdown of 65%.

For “RNA1{r(C)p.r(U)p.r(U)p.r(A)p.r(C)p.r(G)p.r(C)p.r(U)p.r(G)p.r(A)p.r(G)p.r(U)p.r(A)p.r(C)p.r(U)p.r(U)p.r(C)p.r(G)p.r(A)p.r(T)p.r(T)}|RNA2{r(U)p.r(C)p.r(G)p.r(A)p.r(A)p.r(G)p.r(U)p.r(A)p.r(C)p.r(U)p.r(C)p.r(A)p.r(G)p.[lna](C)p.r(G)p.r(U)p.r(A)p.r(A)p.r(G)p.r(T)p.r(T)}$$$RNA1{StrandType:ss}|RNA2{StrandType:as}$”, the target mRNA knockdown was 43%.

For “RNA1{r(C)p.r(U)p.r(U)p.r(A)p.r(C)p.r(G)p.r(C)p.r(U)p.r(G)p.r(A)p.r(G)p.r(U)p.r(A)p.r(C)p.r(U)p.r(U)p.r(C)p.r(G)p.r(A)p.r(T)p.r(T)}|RNA2{r(U)p.r(C)p.r(G)p.r(A)p.r(A)p.r(G)p.r(U)p.r(A)p.r(C)p.r(U)p.r(C)p.r(A)p.r(G)p.r(C)p.[lna](G)p.r(U)p.r(A)p.r(A)p.r(G)p.r(T)p.r(T)}$$$RNA1{StrandType:ss}|RNA2{StrandType:as}$”, the target mRNA knockdown was 85%.
